The cell lines below were run with C(C(=O)C(=O)O)Br [Bromopyruvate] + COc1cc2c(Oc3ccc(NC(=O)C4(C(=O)Nc5ccc(F)cc5)CC4)cc3F)ccnc2cc1OCCCN1CCOCC1 [Foretinib] (partner 0.25 µM) (assay: relative viability (nuclei count vs DMSO), 5 days (fraction); higher = more cells survive). Conditions: first compound 3.162 µM.
Method in brief: (§1)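 Cells from lung cancer lines were seeded into 1536-well plates and, one day later, dosed by pin tool. Treatments were either a single drug or a fixed dose of an anchor drug with five library-drug doses (not always all listed) in √10 steps. After 5 days, nuclei were stained in a one-step fixation (final 0.05% Triton X-100, 1% formaldehyde, 1 ug/ml Hoechst) and counted on 4× images, and relative viability is the treated-to-vehicle nuclei ratio, as the median of duplicate plates.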
NCI-H1666 gave a relative viability of 1.05.
Work on NCI-H647 yielded a relative viability of 1.2.
Work on LK-2 yielded a relative viability of 1.35.
In the case of NCI-H2342, the relative viability is reported as 1.18.
Cell Line SK-MES-1 has a relative viability of 0.962.
COR-L23 was tested, and the relative viability was 0.914.
COR-L 105 showed a relative viability of 1.18.
Cell Line IA-LM has a relative viability of 1.19.
Cell Line ChaGo-K-1 has a relative viability of 0.937.
In the case of A549, the relative viability is reported as 0.935.
In the case of SW 900, the relative viability is reported as 0.955.
Cell Line NCI-H2023 has a relative viability of 0.776.
NCI-H520 showed a relative viability of 0.805.
SW 1573 was tested, and the relative viability was 0.845.
In the case of NCI-H1299, the relative viability is reported as 1.13.
NCI-H1563 gave a relative viability of 1.11.
SK-LU-1 showed a relative viability of 0.867.
In the case of NCI-H661, the relative viability is reported as 1.02.

Same assay, conditions: first compound 10 µM
NCI-H1623 was tested, and the relative viability was 0.99.
NCI-H838 showed a relative viability of 1.07.
NCI-H1650 showed a relative viability of 1.12.
Work on EBC-1 yielded a relative viability of 0.102.
NCI-H1703 was tested, and the relative viability was 0.364.
Work on NCI-H2009 yielded a relative viability of 1.19.
Cell Line NCI-H1993 has a relative viability of 0.939.
Cell Line PC-14 has a relative viability of 1.02.
With LCLC-103H the relative viability was 0.97.
NCI-H596 gave a relative viability of 1.02.
Work on NCI-H2228 yielded a relative viability of 0.941.
Work on EMC-BAC-2 yielded a relative viability of 1.06.
NCI-H2087 showed a relative viability of 0.97.
Calu-6 showed a relative viability of 0.938.
In the case of HCC-366, the relative viability is reported as 0.961.
NCI-H1666 gave a relative viability of 1.03.
In the case of NCI-H647, the relative viability is reported as 1.31.
LK-2 gave a relative viability of 1.57.
Cell Line NCI-H2342 has a relative viability of 1.01.
SK-MES-1 was tested, and the relative viability was 0.938.
Work on COR-L23 yielded a relative viability of 1.02.
COR-L 105 was tested, and the relative viability was 0.995.
In the case of IA-LM, the relative viability is reported as 1.07.
With ChaGo-K-1 the relative viability was 1.15.
Work on A549 yielded a relative viability of 1.07.
For SW 900, the relative viability was 0.665.
NCI-H2023 gave a relative viability of 0.813.
With NCI-H520 the relative viability was 0.646.
In the case of SW 1573, the relative viability is reported as 0.982.
Cell Line NCI-H1299 has a relative viability of 1.16.
NCI-H1563 gave a relative viability of 0.946.
SK-LU-1 was tested, and the relative viability was 0.954.
Work on NCI-H661 yielded a relative viability of 1.05.

Same assay, conditions: first compound 31.62 µM
NCI-H1623 showed a relative viability of 0.927.
NCI-H838 showed a relative viability of 1.05.
Work on NCI-H1650 yielded a relative viability of 1.42.
Work on EBC-1 yielded a relative viability of 0.112.
NCI-H1703 showed a relative viability of 0.367.
With NCI-H2009 the relative viability was 1.2.
NCI-H1993 was tested, and the relative viability was 0.764.
For PC-14, the relative viability was 0.848.
Work on LCLC-103H yielded a relative viability of 0.797.
Cell Line NCI-H596 has a relative viability of 0.685.
NCI-H2228 was tested, and the relative viability was 0.754.
Work on EMC-BAC-2 yielded a relative viability of 0.933.
Cell Line NCI-H2087 has a relative viability of 1.12.
Work on Calu-6 yielded a relative viability of 0.856.
In the case of HCC-366, the relative viability is reported as 0.759.
For NCI-H1666, the relative viability was 1.
NCI-H647 showed a relative viability of 1.21.
In the case of LK-2, the relative viability is reported as 1.12.
With NCI-H2342 the relative viability was 0.853.
Work on SK-MES-1 yielded a relative viability of 0.75.
For COR-L23, the relative viability was 0.971.
Cell Line COR-L 105 has a relative viability of 1.08.
IA-LM showed a relative viability of 1.17.
ChaGo-K-1 was tested, and the relative viability was 1.02.
Work on A549 yielded a relative viability of 0.989.
Work on SW 900 yielded a relative viability of 0.84.
NCI-H2023 gave a relative viability of 0.985.
For NCI-H520, the relative viability was 0.859.
With SW 1573 the relative viability was 0.996.
Cell Line NCI-H1299 has a relative viability of 1.14.
With NCI-H1563 the relative viability was 0.879.
For SK-LU-1, the relative viability was 0.671.
Work on NCI-H661 yielded a relative viability of 1.02.

Same assay, conditions: first compound 100 µM
In the case of NCI-H1623, the relative viability is reported as 0.987.
For NCI-H838, the relative viability was 1.03.
For NCI-H1650, the relative viability was 0.747.
EBC-1 showed a relative viability of 0.0941.
In the case of NCI-H1703, the relative viability is reported as 0.356.
In the case of NCI-H2009, the relative viability is reported as 0.883.
NCI-H1993 was tested, and the relative viability was 0.774.
PC-14 gave a relative viability of 0.981.
With LCLC-103H the relative viability was 1.02.
Work on NCI-H596 yielded a relative viability of 0.232.
NCI-H2228 gave a relative viability of 0.794.
EMC-BAC-2 showed a relative viability of 1.1.
NCI-H2087 gave a relative viability of 0.595.
In the case of Calu-6, the relative viability is reported as 0.613.
Cell Line HCC-366 has a relative viability of 0.963.
With NCI-H1666 the relative viability was 0.936.
Cell Line NCI-H647 has a relative viability of 1.06.
LK-2 showed a relative viability of 0.894.
NCI-H2342 showed a relative viability of 1.04.
For SK-MES-1, the relative viability was 1.17.
In the case of COR-L23, the relative viability is reported as 0.434.
With COR-L 105 the relative viability was 0.616.
IA-LM was tested, and the relative viability was 0.914.
With ChaGo-K-1 the relative viability was 0.998.
Work on A549 yielded a relative viability of 1.06.
SW 900 showed a relative viability of 0.898.
With NCI-H2023 the relative viability was 0.806.
Cell Line NCI-H520 has a relative viability of 0.895.
Cell Line SW 1573 has a relative viability of 0.868.
NCI-H1299 gave a relative viability of 1.09.
NCI-H1563 gave a relative viability of 0.901.
SK-LU-1 showed a relative viability of 0.799.
With NCI-H661 the relative viability was 0.994.

Each cell line was assayed with C(C(=O)C(=O)O)Br [Bromopyruvate] + Cc1cc(Nc2cc(N3CCN(C)CC3)nc(Sc3ccc(NC(=O)C4CC4)cc3)n2)n[nH]1 [Tozasertib] (partner 0.1 µM) in the same assay as above. Conditions: first compound 1 µM.
Method in brief: as §1
For NCI-H522, the relative viability was 0.616.
With NCI-H1623 the relative viability was 0.419.
NCI-H838 was tested, and the relative viability was 0.268.
For NCI-H1650, the relative viability was 0.441.
NCI-H2009 was tested, and the relative viability was 0.743.
NCI-H1993 was tested, and the relative viability was 0.626.
PC-14 gave a relative viability of 0.598.
LCLC-103H gave a relative viability of 0.515.
NCI-H596 showed a relative viability of 0.83.
Cell Line NCI-H2228 has a relative viability of 0.241.
EMC-BAC-2 showed a relative viability of 0.295.
In the case of NCI-H2087, the relative viability is reported as 0.237.
Cell Line HCC-366 has a relative viability of 0.136.
In the case of NCI-H1666, the relative viability is reported as 0.644.
